# In US12384770B2, “Heterocyclic compound” (Takeda Pharmaceutical Company Limited, priority 2019, dated 2025):
# Molecular target: T1, HDAC6 enzyme (Homo sapiens, UniProt Q9UBN7)
# T1 construct: HDAC6 enzyme prepared by transducing full length HDAC6 gene into Sf-9 insect cells; GST; purchased SignalChem; host or cells: Sf-9 insect cells
# T1 sequence (Q9UBN7 1-1215): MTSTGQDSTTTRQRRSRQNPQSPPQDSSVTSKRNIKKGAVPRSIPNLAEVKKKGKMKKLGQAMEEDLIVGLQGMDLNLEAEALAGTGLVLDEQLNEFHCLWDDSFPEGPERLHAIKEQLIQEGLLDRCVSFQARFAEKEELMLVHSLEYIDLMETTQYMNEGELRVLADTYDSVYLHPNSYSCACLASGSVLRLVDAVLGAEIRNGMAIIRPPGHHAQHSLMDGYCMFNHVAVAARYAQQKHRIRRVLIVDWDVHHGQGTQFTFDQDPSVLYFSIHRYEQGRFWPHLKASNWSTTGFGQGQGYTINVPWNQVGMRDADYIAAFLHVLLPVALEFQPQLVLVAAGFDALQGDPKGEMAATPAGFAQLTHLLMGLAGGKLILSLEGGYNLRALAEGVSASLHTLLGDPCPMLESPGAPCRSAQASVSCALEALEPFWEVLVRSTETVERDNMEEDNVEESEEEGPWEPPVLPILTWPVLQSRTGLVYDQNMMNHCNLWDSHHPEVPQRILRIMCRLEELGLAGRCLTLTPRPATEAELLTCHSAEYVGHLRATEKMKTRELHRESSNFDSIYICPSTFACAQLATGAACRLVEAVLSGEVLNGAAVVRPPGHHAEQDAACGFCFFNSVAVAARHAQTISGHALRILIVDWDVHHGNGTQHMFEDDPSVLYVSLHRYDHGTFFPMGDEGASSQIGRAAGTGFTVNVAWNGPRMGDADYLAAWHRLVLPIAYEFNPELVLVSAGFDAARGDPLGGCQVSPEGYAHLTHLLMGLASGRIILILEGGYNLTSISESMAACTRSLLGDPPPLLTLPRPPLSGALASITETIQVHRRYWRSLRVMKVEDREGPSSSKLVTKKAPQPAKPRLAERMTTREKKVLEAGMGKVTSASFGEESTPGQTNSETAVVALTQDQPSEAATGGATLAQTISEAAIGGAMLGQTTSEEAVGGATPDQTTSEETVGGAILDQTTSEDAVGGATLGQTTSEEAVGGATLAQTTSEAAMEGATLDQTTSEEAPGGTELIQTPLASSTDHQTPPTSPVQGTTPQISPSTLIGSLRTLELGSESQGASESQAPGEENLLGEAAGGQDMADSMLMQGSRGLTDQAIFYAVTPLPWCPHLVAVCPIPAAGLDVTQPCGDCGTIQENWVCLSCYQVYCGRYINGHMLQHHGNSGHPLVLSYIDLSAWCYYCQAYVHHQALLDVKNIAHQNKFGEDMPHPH
# Experiment: HDAC6 enzyme inhibitory assay (HDAC-Glo I/II Assay kit)
# Format: biochemical
# Details: wells without enzyme = 100% inhibition; for inhibition at 10 µM: read-out: HDAC6 inhibitory rate (%) (10 μM)
# In short: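 Full-length GST-purified HDAC6 from Sf-9 cells preincubated with compound 60 min at room temperature in Tris-HCl pH 7.5 buffer with MgCl2, KCl, NaCl, glutathione, Tween-20. Substrate-developer reaction 20 min, luminescence read; no-enzyme wells set as 100% inhibition.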
inhibition at 10 µM,Compound,other results
,"O=C1c2cc(-c3nnc(C(F)F)o3)ccc2CN1[C@H](C1CC1)[C@@H](O)c1cccc(F)n1 (single isomer, unassigned) [Example 80, 2-[(1R*,2R*)-1-cyclopropyl-2-(6-fluoropyridin-2-yl)-2-hydroxyethyl]-6-[5-(difluoromethyl)-1,3,4-oxadiazol-2-yl]-2,3-dihydro-1H-isoindol-1-one]",HDAC6 inhibitory rate (%) (10 μM) (10 µM): 100%
,"O=C1c2cc(-c3nnc(C(F)F)o3)ccc2CN1[C@H](c1ccc(F)nc1)[C@@H](O)c1ccc(F)cc1 (single isomer, unassigned) [Example 35, 6-[5-(difluoromethyl)-1,3,4-oxadiazol-2-yl]-2-[(1R*,2S*)-2-(4-fluorophenyl)-1-(6-fluoropyridin-3-yl)-2-hydroxyethyl]-2,3-dihydro-1H-isoindol-1-one]",HDAC6 inhibitory rate (%) (10 μM): 100%
99%,"O=C1c2cc(-c3nnc(C(F)F)o3)ccc2CN1[C@H](c1ccc(C(F)(F)F)nc1)[C@@H](O)c1ccc(F)cc1 (racemic) [Example 18, 6-[5-(difluoromethyl)-1,3,4-oxadiazol-2-yl]-2-{(1RS,2SR)-2-(4-fluorophenyl)-2-hydroxy-1-[6-(trifluoromethyl)pyridin-3-yl]ethyl}-2,3-dihydro-1H-isoindol-1-one]",
99%,"O=C1c2cc(-c3nnc(C(F)F)o3)ccc2CN1[C@H](c1ccccc1F)[C@@H](O)c1ccc(F)cc1 (racemic) [Example 28, 6-[5-(difluoromethyl)-1,3,4-oxadiazol-2-yl]-2-[(1RS,2SR)-1-(2-fluorophenyl)-2-(4-fluorophenyl)-2-hydroxyethyl]-2,3-dihydro-1H-isoindol-1-one]",
100%,"O=C1c2cc(-c3nnc(C(F)F)o3)ccc2CN1[C@H](c1ccc(F)cc1)[C@@H](O)c1ccccc1 (single isomer, unassigned) [Example 45, 6-[5-(difluoromethyl)-1,3,4-oxadiazol-2-yl]-2-[(1R*,2S*)-1-(4-fluorophenyl)-2-hydroxy-2-phenylethyl]-2,3-dihydro-1H-isoindol-1-one]",
100%,"O=C1c2cc(-c3nnc(C(F)F)o3)ccc2CN1[C@H](c1ccccc1)[C@@H](O)C1CCC(F)(F)CC1 (racemic) [Example 25, 2-[(1RS,2SR)-2-(4,4-difluorocyclohexyl)-2-hydroxy-1-phenylethyl]-6-[5-(difluoromethyl)-1,3,4-oxadiazol-2-yl]-2,3-dihydro-1H-isoindol-1-one]",
100%,"O=C1c2cc(-c3nnc(C(F)F)o3)ccc2CN1[C@H](c1cnccn1)[C@@H](O)c1cccc(F)c1 (single isomer, unassigned) [Example 100, 6-[5-(difluoromethyl)-1,3,4-oxadiazol-2-yl]-2-[(1R*,2S*)-2-(3-fluorophenyl)-2-hydroxy-1-(pyrazin-2-yl)ethyl]-2,3-dihydro-1H-isoindol-1-one]",
100%,"O=C1c2cc(-c3nnc(C(F)F)o3)ccc2CN1[C@H](c1cccnn1)[C@@H](O)c1ccc(F)c(F)c1 (single isomer, unassigned) [Example 108, 6-[5-(difluoromethyl)-1,3,4-oxadiazol-2-yl]-2-[(1R*,2S*)-2-(3,4-difluorophenyl)-2-hydroxy-1-(pyridazin-3-yl)ethyl]-2,3-dihydro-1H-isoindol-1-one]",
99%,"O=C1c2cc(-c3nnc(C(F)F)o3)ccc2CN1[C@H](c1ccc(F)cc1)[C@@H](O)c1cccnc1 (single isomer, unassigned) [Example 49, 6-[5-(difluoromethyl)-1,3,4-oxadiazol-2-yl]-2-[(1R*,2S*)-1-(4-fluorophenyl)-2-hydroxy-2-(pyridin-3-yl)ethyl]-2,3-dihydro-1H-isoindol-1-one]",
,"O=C1c2cc(-c3nnc(C(F)F)o3)ccc2CN1[C@H](C1CC1)[C@@H](O)c1ncccn1 (single isomer, unassigned) [Example 74, 2-[(1R*,2R*)-1-cyclopropyl-2-hydroxy-2-(pyrimidin-2-yl)ethyl]-6-[5-(difluoromethyl)-1,3,4-oxadiazol-2-yl]-2,3-dihydro-1H-isoindol-1-one]",HDAC6 inhibitory rate (%) (10 μM) (10 µM): 96%
100%,"N#Cc1ccc([C@H]([C@@H](O)c2ccccc2)N2Cc3ccc(-c4nnc(C(F)F)o4)cc3C2=O)cc1 (racemic) [Example 41, 4-[(1RS,2SR)-1-{6-[5-(difluoromethyl)-1,3,4-oxadiazol-2-yl]-1-oxo-1,3-dihydro-2H-isoindol-2-yl}-2-hydroxy-2-phenylethyl]benzonitrile]",
100%,"O=C1c2cc(-c3nnc(C(F)F)o3)ccc2CN1[C@H](C1CCOCC1)[C@@H](O)c1cc(F)cc(Cl)c1 (racemic) [Example 106, 2-[(1RS,2SR)-2-(3-chloro-5-fluorophenyl)-2-hydroxy-1-(oxan-4-yl)ethyl]-6-[5-(difluoromethyl)-1,3,4-oxadiazol-2-yl]-2,3-dihydro-1H-isoindol-1-one]",
100%,"CCOc1ccc([C@H](O)[C@@H](c2ccccc2)N2Cc3ccc(-c4nnc(C(F)F)o4)cc3C2=O)cn1 (racemic) [Example 44, 6-[5-(difluoromethyl)-1,3,4-oxadiazol-2-yl]-2-[(1RS,2SR)-2-(6-ethoxypyridin-3-yl)-2-hydroxy-1-phenylethyl]-2,3-dihydro-1H-isoindol-1-one]",
,"O=C1c2cc(-c3nnc(C(F)F)o3)ccc2CN1[C@H](c1ccccn1)[C@@H](O)c1cc(Cl)ccn1 (single isomer, unassigned) [Example 124, 2-[(1R*,2R*)-2-(4-chloropyridin-2-yl)-2-hydroxy-1-(pyridin-2-yl)ethyl]-6-[5-(difluoromethyl)-1,3,4-oxadiazol-2-yl]-2,3-dihydro-1H-isoindol-1-one]",HDAC6 inhibitory rate (%) (10 μM) (10 µM): 100%
101%,"O=C1c2cc(-c3nnc(C(F)F)o3)ccc2CN1[C@H](C1CCOCC1)[C@@H](O)c1cccc(C(F)(F)F)c1 (racemic) [Example 116, 6-[5-(difluoromethyl)-1,3,4-oxadiazol-2-yl]-2-{(1RS,2SR)-2-hydroxy-1-(oxan-4-yl)-2-[3-(trifluoromethyl)phenyl]ethyl}-2,3-dihydro-1H-isoindol-1-one]",
100%,"O=C1c2cc(-c3nnc(C(F)F)o3)ccc2CN1[C@H](c1ncccn1)[C@@H](O)c1cccc(Cl)c1 (racemic) [Example 133, 2-[(1RS,2SR)-2-(3-chlorophenyl)-2-hydroxy-1-(pyrimidin-2-yl)ethyl]-6-[5-(difluoromethyl)-1,3,4-oxadiazol-2-yl]-2,3-dihydro-1H-isoindol-1-one]",
100%,"O=C1c2cc(-c3nnc(C(F)F)o3)ccc2CN1[C@H](C1CCOCC1)[C@@H](O)c1ccc(F)c(F)c1 (single isomer, unassigned) [Example 87, 6-[5-(difluoromethyl)-1,3,4-oxadiazol-2-yl]-2-[(1R*,2S*)-2-(3,4-difluorophenyl)-2-hydroxy-1-(oxan-4-yl)ethyl]-2,3-dihydro-1H-isoindol-1-one]",
100%,"O=C1c2cc(-c3nnc(C(F)F)o3)ccc2CN1[C@H](c1cccc(F)c1)[C@@H](O)c1ccc(F)cc1 (racemic) [Example 21, 6-[5-(difluoromethyl)-1,3,4-oxadiazol-2-yl]-2-[(1RS,2SR)-1-(3-fluorophenyl)-2-(4-fluorophenyl)-2-hydroxyethyl]-2,3-dihydro-1H-isoindol-1-one]",
,"O=C1c2cc(-c3nnc(C(F)F)o3)ccc2CN1[C@H](c1cnccn1)[C@@H](O)c1cccc(F)c1 (single isomer, unassigned) [Example 101, 6-[5-(difluoromethyl)-1,3,4-oxadiazol-2-yl]-2-[(1R*,2S*)-2-(3-fluorophenyl)-2-hydroxy-1-(pyrazin-2-yl)ethyl]-2,3-dihydro-1H-isoindol-1-one]",HDAC6 inhibitory rate (%) (10 μM): 100%
98%,"O=C1c2cc(-c3nnc(C(F)F)o3)ccc2CN1[C@H](c1ccc(F)cc1)[C@@H](O)c1ccc(C(F)(F)F)nc1 (relative stereo) [Example 55, 6-[5-(difluoromethyl)-1,3,4-oxadiazol-2-yl]-2-{(1R*,2S)-1-(4-fluorophenyl)-2-hydroxy-2-[6-(trifluoromethyl)pyridin-3-yl]ethyl}-2,3-dihydro-1H-isoindol-1-one]",
